Experiments:
[1] = test system: A. baumannii ATCC 17978 (SEN) and A. baumannii ATCC BAA-1605 (MDR); assay: microbe, parasite or virus in culture; assay type: cell-based, Acinetobacter baumannii; conditions: for MIC: across three biological replicates
Procedure, shortened: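 Broth microdilution in cation-adjusted Mueller-Hinton Broth 2 (except SCH79797), 11–16-step serial dilutions, 5 × 10^5 cells/mL, 37 °C with shaking for 18 h, 2 replicates. MIC is the lowest concentration giving complete growth inhibition (OD600 < 0.05); relative MIC = MIC evolved/MIC ancestor.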

[2] = test system: E. coli ATCC 25922 (SEN) and E. coli NCTC13846 (MDR); assay: Adaptive laboratory evolution (ALE), relative MIC of evolved lines; assay type: cell-based, Escherichia coli
Procedure, shortened: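 Ten parallel populations per antibiotic–ancestor pair were evolved in MHB at 37 °C, starting near 50% growth-inhibiting drug. Every 72 h they were passaged into 0.5–2.5× increasing concentrations, keeping the highest-drug well with OD600 > 0.2.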

## C[C@@H](O)[C@H]1C(=O)N2C(C(=O)O)=C(S[C@H]3CC[S@@+]([O-])C3)S[C@H]12 [Sulopenem]
[1]; Acinetobacter baumannii ATCC 17978 (AB-SEN), ancestor strain, sheet fig 2a
  MIC of ancestor: 1 µg/mL
[1]; Acinetobacter baumannii ATCC 17978 (AB-SEN)
  MIC: 1 µg/mL
[1]; Acinetobacter baumannii ATCC BAA-1605 (AB-MDR)
  MIC: 32 µg/mL
[1]; ancestor AB-SEN (Acinetobacter baumannii ATCC 17978)
  MIC of ancestor: 1 µg/mL
[2]; EC-MDR (E. coli NCTC 13846), evolved line 1 of the given antibiotic
  MIC of evolved line: 16 µg/mL
[2]; EC-MDR (E. coli NCTC 13846), evolved line 1 vs ancestor
  Relative MIC: 512
[2]; EC-MDR (E. coli NCTC 13846), evolved line 2 of the given antibiotic
  MIC of evolved line: 0.5 µg/mL
[2]; EC-MDR (E. coli NCTC 13846), evolved line 2 vs ancestor
  Relative MIC: 16
[2]; EC-MDR (E. coli NCTC 13846), evolved line 3 of the given antibiotic
  MIC of evolved line: 4 µg/mL
[2]; EC-MDR (E. coli NCTC 13846), evolved line 3 vs ancestor
  Relative MIC: 128
[2]; EC-MDR (E. coli NCTC 13846), evolved line 4 of the given antibiotic
  MIC of evolved line: 4 µg/mL
[2]; EC-MDR (E. coli NCTC 13846), evolved line 4 vs ancestor
  Relative MIC: 128
[2]; EC-MDR (E. coli NCTC 13846), evolved line 5 of the given antibiotic
  MIC of evolved line: 16 µg/mL
[2]; EC-MDR (E. coli NCTC 13846), evolved line 5 vs ancestor
  Relative MIC: 512
[2]; EC-MDR (E. coli NCTC 13846), evolved line 7 of the given antibiotic
  MIC of evolved line: 0.5 µg/mL
[2]; EC-MDR (E. coli NCTC 13846), evolved line 7 vs ancestor
  Relative MIC: 16
[2]; EC-MDR (E. coli NCTC 13846), evolved line 8 of the given antibiotic
  MIC of evolved line: 4 µg/mL
[2]; EC-MDR (E. coli NCTC 13846), evolved line 8 vs ancestor
  Relative MIC: 128
[2]; EC-MDR (E. coli NCTC 13846), evolved line 9 of the given antibiotic
  MIC of evolved line: 8 µg/mL
[2]; EC-MDR (E. coli NCTC 13846), evolved line 9 vs ancestor
  Relative MIC: 256
[2]; EC-MDR (E. coli NCTC 13846), evolved line 10 of the given antibiotic
  MIC of evolved line: 4 µg/mL
[2]; EC-MDR (E. coli NCTC 13846), evolved line 10 vs ancestor
  Relative MIC: 128
[2]; EC-MDR (Escherichia coli NCTC 13846), evolved line 4
  Relative MIC (log10): 2.107 log10
[2]; EC-MDR (Escherichia coli NCTC 13846), evolved line 5
  Relative MIC (log10): 2.709 log10
[2]; EC-MDR (Escherichia coli NCTC 13846), evolved line 8
  Relative MIC (log10): 2.107 log10
[2]; EC-MDR (Escherichia coli NCTC 13846), evolved line 9
  Relative MIC (log10): 2.408 log10
[2]; EC-MDR (Escherichia coli NCTC 13846), evolved line 10
  Relative MIC (log10): 2.107 log10
[2]; EC-SEN (E. coli ATCC 25922), evolved line 5 of the given antibiotic
  MIC of evolved line: 0.25 µg/mL
[2]; EC-SEN (E. coli ATCC 25922), evolved line 5 vs ancestor
  Relative MIC: 8
[2]; EC-SEN (E. coli ATCC 25922), evolved line 6 of the given antibiotic
  MIC of evolved line: 0.25 µg/mL
[2]; EC-SEN (E. coli ATCC 25922), evolved line 6 vs ancestor
  Relative MIC: 8
[2]; EC-SEN (E. coli ATCC 25922), evolved line 7 of the given antibiotic
  MIC of evolved line: 0.25 µg/mL
[2]; EC-SEN (E. coli ATCC 25922), evolved line 7 vs ancestor
  Relative MIC: 8
[2]; EC-SEN (E. coli ATCC 25922), evolved line 8 of the given antibiotic
  MIC of evolved line: 0.25 µg/mL
[2]; EC-SEN (E. coli ATCC 25922), evolved line 8 vs ancestor
  Relative MIC: 8
[2]; EC-SEN (E. coli ATCC 25922), evolved line 9 of the given antibiotic
  MIC of evolved line: 0.125 µg/mL
[2]; EC-SEN (E. coli ATCC 25922), evolved line 9 vs ancestor
  Relative MIC: 4
[2]; EC-SEN (E. coli ATCC 25922), evolved line 10 of the given antibiotic
  MIC of evolved line: 0.125 µg/mL
[2]; EC-SEN (E. coli ATCC 25922), evolved line 10 vs ancestor
  Relative MIC: 4
[2]; EC-SEN (Escherichia coli ATCC 25922), evolved line 6
  Relative MIC (log10): 0.9031 log10
[2]; EC-SEN (Escherichia coli ATCC 25922), evolved line 7
  Relative MIC (log10): 0.9031 log10
[2]; EC-SEN (Escherichia coli ATCC 25922), evolved line 8
  Relative MIC (log10): 0.9031 log10
[2]; EC-SEN (Escherichia coli ATCC 25922), evolved line 9
  Relative MIC (log10): 0.6021 log10
[2]; EC-SEN (Escherichia coli ATCC 25922), evolved line 10
  Relative MIC (log10): 0.6021 log10
[2]; Escherichia coli ATCC 25922 (EC-SEN), evolved line 5
  Relative MIC: 8
[2]; Escherichia coli ATCC 25922 (EC-SEN), evolved line 6
  Relative MIC: 8
[2]; Escherichia coli ATCC 25922 (EC-SEN), evolved line 7
  Relative MIC: 8
[2]; Escherichia coli ATCC 25922 (EC-SEN), evolved line 8
  Relative MIC: 8
[2]; Escherichia coli ATCC 25922 (EC-SEN), evolved line 9
  Relative MIC: 4
[2]; Escherichia coli ATCC 25922 (EC-SEN), evolved line 10
  Relative MIC: 4
[2]; Escherichia coli NCTC 13846 (EC-MDR), evolved line 1
  Relative MIC: 512
[2]; Escherichia coli NCTC 13846 (EC-MDR), evolved line 2
  Relative MIC: 16
[2]; Escherichia coli NCTC 13846 (EC-MDR), evolved line 3
  Relative MIC: 128
[2]; Escherichia coli NCTC 13846 (EC-MDR), evolved line 4
  Relative MIC: 128
[2]; Escherichia coli NCTC 13846 (EC-MDR), evolved line 5
  Relative MIC: 512
[2]; Escherichia coli NCTC 13846 (EC-MDR), evolved line 7
  Relative MIC: 16
[2]; Escherichia coli NCTC 13846 (EC-MDR), evolved line 8
  Relative MIC: 128
[2]; Escherichia coli NCTC 13846 (EC-MDR), evolved line 9
  Relative MIC: 256
[2]; Escherichia coli NCTC 13846 (EC-MDR), evolved line 10
  Relative MIC: 128

— PMC11845477, “Exploring the principles behind antibiotics with limited resistance” (Nature Communications, 2025)
